Results from US8084209B2, “HMGCR isoforms in prediction of efficacy and identification of cholesterol-modulating compounds” (Children's Hospital & Research Center Oakland, priority 2005, dated 2011).

Assays:
[1] = CAP trial: plasma lipid, lipoprotein and apoprotein response to 40 mg/day simvastatin; type: in vivo, human; parameters: LDL-Cholesterol, Absolute Difference / HDL-Cholesterol, Absolute Difference / ApoA1, Absolute Difference / ApoB, Absolute Difference / IDL-Cholesterol, Absolute Difference: unit not given here; Total Cholesterol, Absolute Difference: unit: mg/dL; details: for ApoA1, Absolute Difference / ApoB, Absolute Difference / HDL-Cholesterol, Absolute Difference / IDL-Cholesterol, Absolute Difference / LDL-Cholesterol, Absolute Difference / Total Cholesterol, Absolute Difference: 40 mg/day simvastatin in vivo
Description: Patients and cell lines. The Cholesterol/Atherosclerosis Pharmacogenetics (CAP) trial was a non-randomized, non-blinded study of 944 African-American and Caucasian men and women age 30 or older with baseline total cholesterol of 160 to 400 mg/dL.
A subset of 66 African American patients from the CAP trial was chosen for testing of the HMGCR gene expression assay (Examples 1, 2, 3, 4 and 5). An African American was defined as an individual who had three or more grandparents who self-identified as African American. A Caucasian was defined as an individual who had three or more grandparents who self-identified as Caucasian American. The table below provides a summary of the demographics for this population.
The table below provides a summary of the population demographics.
A dose study was performed with a second subset of 60 African American patients (Examples 1, 3, 4, and 5). […] The population demographics for this group is shown below.

[2] = system: total HMGCR (6-7) transcript; experiment: HMGCR gene expression by real time PCR in immortalized lymphocyte cell lines, exons 6 to 7 assay; type: cell-based, human; details: 24 hours
Description: Cell lines were grown at 37° C., 5% CO2 in RPMI Medium 1640 (Invitrogen) supplemented with 10% fetal bovine serum (Hyclone), 500 units/ml Penicillin/Streptomycin (Invitrogen) and 2 nM GlutaMAX (Invitrogen). […] Media was changed 24 hours prior to exposure to ensure the cultures were in an active growth phase. After exposure, cells were pelleted, resuspended in Trizol (Invitrogen), and stored at −80° C. until RNA extraction.
RNA isolation and cDNA synthesis. RNA was isolated from the cell/Trizol slurries following the manufacturer's protocol (Invitrogen). RNA quality was assessed by gel electrophoresis and A260/A280 measured via spectrophotometry. […]
Real time PCR standards were generated by amplifying 100 ng lymphocyte cDNA with 1×PCR buffer, 1.5 mM MgCl2, 0.5 mM dNTPs, 1 mM of each primer, and 0.125 units Taq DNA polymerase (Invitrogen). […] Eight PCR reactions for each standard was generated, pooled, and quantitated via gel electrophoresis using a DNA low mass ladder (Invitrogen). […] PCR standards were run in triplicate on each plate to serve as a positive control for the assay and to quantitate levels of gene expression.
SLC7A5 and CLPTM1 were quantitated in all samples by TaqMan assays purchased from Applied Biosystems (part numbers Hs0018526_m1 and Hs00171300_m1). […]
HMGCR(12-13) and spliced HMGCR(12-14) mRNA was quantified via real time PCR as described above.

[3] = Study Population A, African Americans, N 66
[4] = Study Population B, Caucasian Americans, N 43
[5] = Study Population C, African Americans, N 60
[6] = on statin therapy, data in Examples 1-5

## CCC(C)(C)C(=O)O[C@H]1C[C@@H](C)C=C2C=C[C@H](C)[C@H](CC[C@@H]3C[C@@H](O)CC(=O)O3)[C@H]21 [simvastatin]
[1]; African Americans, on statin therapy
  mean HDL-cholesterol increase: 0.96 mg/dL
[1]; Caucasian Americans, on statin therapy
  mean HDL-cholesterol increase: 2.17 mg/dL
[1]; [3]
  ApoA1, Absolute Difference: −1.69 ± 1.76
  ApoB, Absolute Difference: −27.11 ± 1.71
  HDL-Cholesterol, Absolute Difference: 0.96 ± 0.75
  IDL-Cholesterol, Absolute Difference: −9.06 ± 0.75
  LDL-Cholesterol, Absolute Difference: −51.17 ± 2.37
  Total Cholesterol, Absolute Difference: −54.48 ± 2.79
[1]; [4]
  ApoA1, Absolute Difference: −2.114 ± 2.271
  ApoB, Absolute Difference: −33.091 ± 2.700
  HDL-Cholesterol, Absolute Difference: 2.155 ± 0.904
  IDL-Cholesterol, Absolute Difference: −10.373 ± 1.066
  LDL-Cholesterol, Absolute Difference: −63.909 ± 3.455
  Total Cholesterol, Absolute Difference: −65.614 ± 3.791
[1]; [5]
  ApoA1, Absolute Difference: 2.80 ± 1.79
  ApoB, Absolute Difference: −28.03 ± 1.88
  HDL-Cholesterol, Absolute Difference: 1.98 ± 0.55
  IDL-Cholesterol, Absolute Difference: −10.23 ± 0.80
  LDL-Cholesterol, Absolute Difference: −55.74 ± 3.36
  Total Cholesterol, Absolute Difference: −57.73 ± 3.62
[1]; [6]
  mean IDL cholesterol reduction (printed: mean total cholesterol reduction): -9.85 mg/dL
  mean LDL-cholesterol reduction: -56.0 mg/dL
  mean total cholesterol reduction: -58.5 mg/dL
[2]; African American cell lines, 14.5 μM simvastatin
  up-regulation of HMGCR(6-7): 1.65±0.48 fold
[2]; cell lines derived from African Americans, 1.8 μM activated simvastatin
  total HMGCR (6-7) gene up-regulation, average fold change: 1.44 fold
